Results: PubChem BioAssay AID2060891 (Molecular Pharmacology Branch, DTP, NCI, 2025)

Test system: K98450-129-R-PDC complex spheroid growth, percent test/control
Test: Anticancer human tumor K98450-129-R-PDC patient-derived colon adenocarcinoma cell line growth inhibition [RAS]
Settings: for IC50: curve of first compound; for viability, T/C: stronger effect = lower value; active = viability on the fitted dose curve at most 10% of control; inactive = the rest
How it was run: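 Agents were tested in combination matrices in half-log decrements from a top concentration at or near clinical Cmax (10 microM if undetermined). Targets were multi-cell spheroids of tumour lines plus HUVEC and MSC stromal cells.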
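Also: spheroids exposed to agents for seven days before the viability readout.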
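For viability, T/C in this document: luminescence used as a proxy for viable cell amount.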

C=CC(=O)N1CCN(c2nc(OCC3CCCN3C)nc3c(F)c(-c4nc(N)cc(C)c4C(F)(F)F)c(Cl)cc23)C(C)C1 (centres undefined) + C#Cc1c(F)ccc2cc(O)cc(-c3ncc4c(N5CC6CCC(C5)N6)nc(OCC56CCCN5CC(F)C6)nc4c3F)c12
111 nM: IC50 (second compound 3.16 µM)
164 nM: IC50 (second compound 0.0316 µM)
93.2 nM: IC50 (second compound 1 µM)
137 nM: IC50 (second compound 0.316 µM)
143 nM: IC50 (second compound 0.1 µM)
134 nM: IC50 (second compound 10 µM)
inactive: viability, T/C (second compound 0.0316 µM, first compound 0.00316 µM) 94.9% | viability, T/C (second compound 0.0316 µM, first compound 0.01 µM) 81.4% | viability, T/C (second compound 0.0316 µM, first compound 0.0316 µM) 68.7% | viability, T/C (second compound 0.0316 µM, first compound 0.1 µM) 55% | viability, T/C (second compound 0.0316 µM, first compound 0.316 µM) 43.6% | viability, T/C (second compound 0.0316 µM, first compound 1 µM) 30.8% | viability, T/C (second compound 0.1 µM, first compound 0.00316 µM) 95.4% | viability, T/C (second compound 0.1 µM, first compound 0.01 µM) 81.3% | viability, T/C (second compound 0.1 µM, first compound 0.0316 µM) 68.7% | viability, T/C (second compound 0.1 µM, first compound 0.1 µM) 54.3% | viability, T/C (second compound 0.1 µM, first compound 0.316 µM) 40.5% | viability, T/C (second compound 0.1 µM, first compound 1 µM) 31.4% | viability, T/C (second compound 0.316 µM, first compound 0.00316 µM) 97.7% | viability, T/C (second compound 0.316 µM, first compound 0.01 µM) 86.4% | viability, T/C (second compound 0.316 µM, first compound 0.0316 µM) 70.9% | viability, T/C (second compound 0.316 µM, first compound 0.1 µM) 58.8% | viability, T/C (second compound 0.316 µM, first compound 0.316 µM) 33.9% | viability, T/C (second compound 0.316 µM, first compound 1 µM) 32.6% | viability, T/C (second compound 1 µM, first compound 0.00316 µM) 93.4% | viability, T/C (second compound 1 µM, first compound 0.01 µM) 88.7% | viability, T/C (second compound 1 µM, first compound 0.0316 µM) 67% | viability, T/C (second compound 1 µM, first compound 0.1 µM) 50.2% | viability, T/C (second compound 1 µM, first compound 0.316 µM) 37.2% | viability, T/C (second compound 1 µM, first compound 1 µM) 33.7% | viability, T/C (second compound 3.16 µM, first compound 0.00316 µM) 94.3% | viability, T/C (second compound 3.16 µM, first compound 0.01 µM) 80.4% | viability, T/C (second compound 3.16 µM, first compound 0.0316 µM) 69.7% | viability, T/C (second compound 3.16 µM, first compound 0.1 µM) 52% | viability, T/C (second compound 3.16 µM, first compound 0.316 µM) 34.7% | viability, T/C (second compound 3.16 µM, first compound 1 µM) 26.1% | viability, T/C (second compound 10 µM, first compound 0.00316 µM) 82.9% | viability, T/C (second compound 10 µM, first compound 0.01 µM) 78.4% | viability, T/C (second compound 10 µM, first compound 0.0316 µM) 68.8% | viability, T/C (second compound 10 µM, first compound 0.1 µM) 53.1% | viability, T/C (second compound 10 µM, first compound 0.316 µM) 38.9% | viability, T/C (second compound 10 µM, first compound 1 µM) 24.6%

CC1(C)CCC(Nc2ncc(C(F)(F)F)c(-c3c[nH]c4c(P(C)(C)=O)c(C#N)ccc34)n2)CN1 (centres undefined) + C#Cc1c(F)ccc2cc(O)cc(-c3ncc4c(N5CC6CCC(C5)N6)nc(OCC56CCCN5CC(F)C6)nc4c3F)c12
> 300 nM: IC50 (second compound 0.0316 µM) | IC50 (second compound 0.1 µM) | IC50 (second compound 0.316 µM) | IC50 (second compound 1 µM) | IC50 (second compound 3.16 µM) | IC50 (second compound 10 µM)
inactive: viability, T/C (second compound 0.0316 µM, first compound 0.000949 µM) 102% | viability, T/C (second compound 0.0316 µM, first compound 0.003 µM) 103% | viability, T/C (second compound 0.0316 µM, first compound 0.00949 µM) 100% | viability, T/C (second compound 0.0316 µM, first compound 0.03 µM) 105% | viability, T/C (second compound 0.0316 µM, first compound 0.0949 µM) 88.5% | viability, T/C (second compound 0.0316 µM, first compound 0.3 µM) 58.6% | viability, T/C (second compound 0.1 µM, first compound 0.000949 µM) 107% | viability, T/C (second compound 0.1 µM, first compound 0.003 µM) 105% | viability, T/C (second compound 0.1 µM, first compound 0.00949 µM) 111% | viability, T/C (second compound 0.1 µM, first compound 0.03 µM) 100% | viability, T/C (second compound 0.1 µM, first compound 0.0949 µM) 89.3% | viability, T/C (second compound 0.1 µM, first compound 0.3 µM) 66.6% | viability, T/C (second compound 0.316 µM, first compound 0.000949 µM) 111% | viability, T/C (second compound 0.316 µM, first compound 0.003 µM) 105% | viability, T/C (second compound 0.316 µM, first compound 0.00949 µM) 99.8% | viability, T/C (second compound 0.316 µM, first compound 0.03 µM) 100% | viability, T/C (second compound 0.316 µM, first compound 0.0949 µM) 89.9% | viability, T/C (second compound 0.316 µM, first compound 0.3 µM) 69.7% | viability, T/C (second compound 1 µM, first compound 0.000949 µM) 102% | viability, T/C (second compound 1 µM, first compound 0.003 µM) 97.8% | viability, T/C (second compound 1 µM, first compound 0.00949 µM) 99.3% | viability, T/C (second compound 1 µM, first compound 0.03 µM) 105% | viability, T/C (second compound 1 µM, first compound 0.0949 µM) 89.2% | viability, T/C (second compound 1 µM, first compound 0.3 µM) 64% | viability, T/C (second compound 3.16 µM, first compound 0.000949 µM) 96.1% | viability, T/C (second compound 3.16 µM, first compound 0.003 µM) 95.3% | viability, T/C (second compound 3.16 µM, first compound 0.00949 µM) 95.1% | viability, T/C (second compound 3.16 µM, first compound 0.03 µM) 97.7% | viability, T/C (second compound 3.16 µM, first compound 0.0949 µM) 94.2% | viability, T/C (second compound 3.16 µM, first compound 0.3 µM) 66.7% | viability, T/C (second compound 10 µM, first compound 0.000949 µM) 89% | viability, T/C (second compound 10 µM, first compound 0.003 µM) 94.2% | viability, T/C (second compound 10 µM, first compound 0.00949 µM) 91.4% | viability, T/C (second compound 10 µM, first compound 0.03 µM) 98.4% | viability, T/C (second compound 10 µM, first compound 0.0949 µM) 85.9% | viability, T/C (second compound 10 µM, first compound 0.3 µM) 61.9%
